Measured values reported in PubChem BioAssay AID1745844 (Carcinogenic Potency Database (CPDB), 2022).
Active and inactive are the calls of the source. No rule for the calls is given here.

Test system: rodent lifetime carcinogenesis bioassay, tumor incidence TD50
Experiment: chronic cancer bioassays in animals – CPDB, compiled studies (AID 1745844)
Settings: in feed

Row | Structure (SMILES) | TD50 (mouse, strain CFLP, females, site: liver, lesion: hepatocellular tumor, dosed 78 weeks, study length 78 weeks) | TD50 (mouse, strain CFLP, males, site: liver, lesion: hepatocellular tumor, dosed 78 weeks, study length 78 weeks) | carcinogen call (mouse, strain B6C3F1, females, site: any site (literature study), lesion: several types, types named in the paper, dosed 80 weeks, study length 90 weeks) | TD50 (mouse, strain B6C3F1, females, site: liver, lesion: hepatocellular adenoma + hepatocellular carcinoma + neoplastic nodule, dosed 80 weeks, study length 90 weeks) | carcinogen call (mouse, strain B6C3F1, males, site: any site (literature study), lesion: several types, types named in the paper, dosed 80 weeks, study length 90 weeks) | TD50 (rat, strain Fischer 344, females, site: liver, lesion: hepatocellular adenoma, dosed 104 weeks, study length 104 weeks) | carcinogen call (rat, strain Fischer 344, females, site: thyroid gland, lesion: parafollicular-cell adenoma, dosed 104 weeks, study length 104 weeks) | TD50 (rat, strain Fischer 344, males, site: liver, lesion: hepatocellular adenoma, dosed 104 weeks, study length 104 weeks) | TD50 (rat, strain Fischer 344, males, site: liver, lesion: hepatocellular carcinoma, dosed 104 weeks, study length 104 weeks) | carcinogen call (rat, strain Osborne-Mendel, females, site: any site (literature study), lesion: several types, types named in the paper, dosed 80 weeks, study length 113 weeks) | TD50 (rat, strain Osborne-Mendel, females, site: liver, lesion: hepatocellular adenoma + hepatocellular carcinoma + neoplastic nodule, dosed 80 weeks, study length 113 weeks) | TD50 (rat, strain Osborne-Mendel, females, site: liver, lesion: neoplastic nodule, dosed 80 weeks, study length 111 weeks) | TD50 (rat, strain Osborne-Mendel, males, site: any site (literature study), lesion: several types, types named in the paper, dosed 80 weeks, study length 113 weeks) | TD50 (rat, strain Osborne-Mendel, males, site: liver, lesion: hepatocellular adenoma + hepatocellular carcinoma + neoplastic nodule, dosed 80 weeks, study length 113 weeks)
1 | C#C[C@]1(O)CC[C@H]2[C@@H]3CCc4cc(OC)ccc4[C@H]3CC[C@@]21C | 6.27 mg/kg/day (inactive) | 1.81 mg/kg/day (inactive) |  |  |  |  |  |  |  |  |  |  |  | 
2 | Nc1c(Cl)c(Cl)nc(C(=O)O)c1Cl |  |  | negative (inactive) | 20100 mg/kg/day | negative (inactive) | 15800 mg/kg/day (inactive) | negative (inactive) | 5560 mg/kg/day (inactive) | 8710 mg/kg/day (inactive) | negative (inactive) | 1640 mg/kg/day | 1700 mg/kg/day | 2930 mg/kg/day (inactive) | 1320 mg/kg/day
